How the values were obtained:
mouse leukemia L1210 = test: Antitumor activity test on mouse leukemia L1210 in vivo; details: for max (T/C): L1210, average survival time treated/control ×100, i.p. once a day for 5 days; for Opt. dose: L1210, dose giving max (T/C); for Opt. dose / LD50: i.p. once a day for 5 days; for LD50: L1210-bearing CDF1 mice
Procedure: Mice of compound-non-treated group (control group) were administered with physiological saline solution in the same manner. The average survival times of the compound-treated group and the control group (abbreviated as T and C, respectively) were measured and T/C percentage (T/C×100) was calculated from the following equation. [formula]
In Table 4, max (T/C) means the maximum value of T/C and optimum dose (opt. dose) means an administration amount giving the max namely, an optimum administration amount.

[1] = test system: mouse leukemia L1210 cells; test: Growth inhibition test on cultured mouse leukemia L1210 cells; assay type: cell-based; details: RPMI 1640 with 10% fetal calf serum
Procedure: Mouse leukemia L1210 cells were cultured in a RPMI 1640 medium containing 10% of fetal calf serum.

Row | Compound | Solubility in physiological saline solution | max (T/C) (mouse leukemia L1210) | Opt. dose (mouse leukemia L1210) | LD50 (mouse leukemia L1210) | IC50 [1] | Solubility in water
1 | CC1CCC[NH2+][Pt-2]([Cl])([Cl])[NH2+]1 (racemic) [Compound No. 4] | > 2 mg/ml | 225% | 2 mg/kg | 2.4 mg/kg | 0.20 µg/mL | –
2 | CC1CCC[NH2+][Pt-2]2([NH2+]1)[O]C(=O)C(C)(C)C(=O)[O]2 (racemic) [Compound No. 8, cis-Dimethylmalonato-1-methyl-1,4-butanediamine platinum] | – | 189% | 64 mg/kg | – | 0.90 µg/mL | –
3 | CCC1C(=O)[O][Pt-2]2([NH2+]CCCC(C)[NH2+]2)[O]C1=O (racemic) [Compound No. 9, cis-Ethylmalonato-1-methyl-1,4-butanediamine platinum] | – | 222% | 64 mg/kg | 96.0 mg/kg | 2.40 µg/mL | > 10000 µg/mL
4 | CCC1CCC[NH2+][Pt-2]([Cl])([Cl])[NH2+]1 (racemic) [Compound No. 10, cis-Dichloro-1-ethyl-1,4-butanediamine platinum] | > 2 mg/ml | 210% | 4 mg/kg | 6.0 mg/kg | 0.35 µg/mL | –
5 | CC1CC[NH2+][Pt-2]([Cl])([Cl])[NH2+]C1 (racemic) [Compound No. 13, cis-Dichloro-2-methyl-1,4-butanediamine platinum] | > 2 mg/ml | 187% | 2 mg/kg | 4.2 mg/kg | 0.10 µg/mL | –
6 | CC1CC[NH2+][Pt-2]2([NH2+]C1)[O]C(=O)CC(=O)[O]2 (racemic) [Compound No. 14, cis-Malonato-2-methyl-1,4-butanediamine platinum] | – | 346% | 32 mg/kg | – | 0.74 µg/mL | –
7 | CC1CC[NH2+][Pt-2]2([NH2+]C1)[O]C(=O)C1(CCOCC1)C(=O)[O]2 (racemic) [Compound No. 16, cis-4-Oxacyclohexane-1,1-dicarboxylato-2-methyl-1,4-butanediamine platinum] | – | 167% | 8 mg/kg | 12.0 mg/kg | 0.43 µg/mL | > 15000 µg/mL
8 | CC1CC[NH2+][Pt-2]2([NH2+]C1)[O]C(=O)C(C)(C)C(=O)[O]2 (racemic) [Compound No. 17, cis-Dimethylmalonato-2-methyl-1,4-butanediamine platinum] | – | 238% | 32 mg/kg | – | 0.50 µg/mL | –
9 | CCC1C(=O)[O][Pt-2]2([NH2+]CCC(C)C[NH2+]2)[O]C1=O (racemic) [Compound No. 18, cis-Ethylmalonato-2-methyl-1,4-butanediamine platinum] | – | 264% | 16 mg/kg | 24.0 mg/kg | 0.84 µg/mL | > 10000 µg/mL
10 | CCC1CC[NH2+][Pt-2]([Cl])([Cl])[NH2+]C1 (racemic) [Compound No. 29, cis-Dichloro-2-ethyl-1,4-butanediamine platinum] | > 2 mg/ml | 261% | 2 mg/kg | 3.0 mg/kg | 0.05 µg/mL | –
11 | CCC1CC[NH2+][Pt-2]2([NH2+]C1)[O]C(=O)C(=O)[O]2 (racemic) [Compound No. 30, cis-Oxalato-2-ethyl-1,4-butanediamine platinum] | – | 253% | 8 mg/kg | – | 0.06 µg/mL | –
12 | CCC1CC[NH2+][Pt-2]2([NH2+]C1)[O]C(=O)C(C)(C)C(=O)[O]2 (racemic) [Compound No. 33, cis-Dimethylmalonato-2-ethyl-1,4-butanediamine platinum] | – | – | – | – | 0.23 µg/mL | –
13 | O=C1[O][Pt-2]2([NH2+]CCCC[NH2+]2)[O]C(=O)C12CCC2 [Compound No. 2, cis-Cyclobutane-1,1-dicarboxylato-1,4-butanediamine Platinum] | – | 182% | 32 mg/kg | 48.0 mg/kg | 0.88 µg/mL | –
14 | CC(N)CCCN.O=C([O-])C(=O)[O-].[Pt+2] (stereo not drawn) [Compound No. 5, cis-Oxalato-1-methyl-1,4-butanediamine platinum] | – | 273% | 4 mg/kg | – | 0.29 µg/mL | –
15 | CC(N)CCCN.O=C([O-])CC(=O)[O-].[Pt+2] (stereo not drawn) [Compound No. 6, cis-Malonato-1-methyl-1,4-butanediamine platinum] | – | 359% | 32 mg/kg | – | 0.76 µg/mL | –
16 | CC(N)CCCN.O=C([O-])C1(C(=O)[O-])CCC1.[Pt+2] [Compound No. 7, cis-Cyclobutane-1,1-dicarboxylato-1-methyl-1,4-butanediamine platinum] | – | 176% | 64 mg/kg | – | 2.80 µg/mL | –
17 | CCC(N)CCCN.O=C([O-])C1(C(=O)[O-])CCOCC1.[Pt+2] [Compound No. 12, cis-4-Oxacyclohexane-1,1-dicarboxylato-1-ethyl-1,4-butanediamine platinum] | – | 181% | 64 mg/kg | – | 1.05 µg/mL | –
18 | CC1(C)CC[NH2+][Pt-2]2([NH2+]C1)[O]C(=O)C(=O)[O]2 [Compound No. 20, cis-Oxalato-2,2-dimethyl-1,4-butanediamine platinum] | – | 272% | 8 mg/kg | – | 0.37 µg/mL | –
19 | CC1(C)CC[NH2+][Pt-2]2([NH2+]C1)[O]C(=O)CC(=O)[O]2 [Compound No. 21, cis-Malonato-2,2-dimethyl-1,4-butanediamine platinum] | – | 301% | 32 mg/kg | – | 0.72 µg/mL | –
20 | CC1(C)CC[NH2+][Pt-2]2([NH2+]C1)[O]C(=O)C(C)(C)C(=O)[O]2 [Compound No. 24, cis-Dimethylmalonato-2,2-dimethyl-1,4-butanediamine platinum] | – | 253% | 64 mg/kg | – | 0.78 µg/mL | –
21 | CC1(C)CCC[NH2+][Pt-2]2([NH2+]1)[O]C(=O)C(=O)[O]2 [Compound No. 26, cis-Oxalato-1,1-dimethyl-1,4-butanediamine platinum] | – | – | – | – | 0.30 µg/mL | –
22 | CC1(C)CCC[NH2+][Pt-2]2([NH2+]1)[O]C(=O)C1(CCC1)C(=O)[O]2 [Compound No. 27, cis-Cyclobutane-1,1-dicarboxylato-1,1-dimethyl-1,4-butanediamine platinum] | – | – | – | – | – | > 10000 µg/mL
23 | CC(C)(C(=O)[O-])C(=O)[O-].CC(C)(N)CCCN.[Pt+2] [Compound No. 28, cis-Dimethylmalonato-1,1-dimethyl-1,4-butanediamine platinum] | – | – | – | – | 4.50 µg/mL | –
24 | CCC(CN)CCN.O=C([O-])CC(=O)[O-].[Pt+2] (stereo not drawn) [Compound No. 31, cis-Malonato-2-ethyl-1,4-butanediamine platinum] | – | – | – | – | 0.66 µg/mL | –
25 | CCC(CN)CCN.O=C([O-])C1(C(=O)[O-])CCC1.[Pt+2] [Compound No. 32, cis-Cyclobutane-1,1-dicarboxylato-2-ethyl-1,4-butanediamine platinum] | – | 275% | 32 mg/kg | – | 0.67 µg/mL | –
